Results on 2 compounds are retold here after US20050148763A1, “Peg-binding pth or peg-binding pth derivative” (Chugai Seiyaku Kabushiki Kaisha, priority 2002, published 2005).

The target of one data set is T1, rat PTH1 receptors (Rattus norvegicus, UniProt P25961).
T1 construct: expressed in transfected cells; host or cells: EW29 cells
T1 sequence (P25961 27-591): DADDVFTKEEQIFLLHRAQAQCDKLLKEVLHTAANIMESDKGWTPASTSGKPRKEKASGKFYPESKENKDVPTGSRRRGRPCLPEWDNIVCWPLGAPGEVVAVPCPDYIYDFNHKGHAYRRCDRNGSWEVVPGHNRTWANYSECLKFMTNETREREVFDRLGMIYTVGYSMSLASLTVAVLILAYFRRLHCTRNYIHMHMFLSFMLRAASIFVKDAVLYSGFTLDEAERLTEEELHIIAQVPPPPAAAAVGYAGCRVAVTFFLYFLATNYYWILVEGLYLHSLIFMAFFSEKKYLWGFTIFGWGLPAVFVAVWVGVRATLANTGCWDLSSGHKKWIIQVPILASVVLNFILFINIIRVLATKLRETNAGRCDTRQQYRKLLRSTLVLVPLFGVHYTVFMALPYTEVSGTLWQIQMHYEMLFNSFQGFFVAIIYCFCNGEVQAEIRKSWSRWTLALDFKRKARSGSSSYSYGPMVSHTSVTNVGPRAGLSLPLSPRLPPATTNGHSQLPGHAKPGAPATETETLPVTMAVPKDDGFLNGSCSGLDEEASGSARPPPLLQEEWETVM
In words: in vitro ability to produce cAMP, EW29 cells. Type of data set: cell-based. Particulars: Table 2(3), n=2-3. As to the method:
Each PEG-PTH sample was assayed for its ability to produce cAMP (indicative of the increasing effect of PTH on bone mass) as follows. […] These cells were seeded in 96-well plates at 1×10^5 cells/well and incubated overnight. […] After removing the reaction solution, the plates were placed on powdered dry ice to freeze the cells and then removed from the dry ice. The cells were thawed with 50 μL of 50 mM HCl and frozen again on dry ice. The level of intracellular cAMP was determined with a commercially available EIA kit (Biotrak cAMP EIA system, Amersham).

Data set [1] in a line: Pharmacokinetics and bioavailability in rats by subcutaneous route. Type of data set: in vivo.
A short description of data set [2]: Pharmacokinetics in rats by intravenous route. Type of data set: in vivo. Conditions: rat, in vivo, 80 μg/mL at 1 mL/kg. As to the method:
Each sample was adjusted to 80 μg/mL by dilution with 25 mmol/L citrate-phosphate buffer (pH 5.0) containing 100 mmol/L NaCl and 0.05 vol % Tween 20 to give a solution for administration. Male SD rats at 6 weeks of age (CLEA Japan, Inc.) were provided for this experiment. Intravenous injection was performed on rats having polyethylene tubes (SP-31, Natsume Seisakusho Co., Ltd.) inserted into the femoral artery and vein. The solutions thus prepared were each administered at a dose of 1 mL/kg through a polyethylene tube inserted into the femoral vein, and blood was collected through a polyethylene tube inserted into the femoral artery before administration and at 5, 15, 30 and 45 minutes as well as 1, 2, 4, 6, 8 and 24 hours after administration. Subcutaneous administration was performed on rats having polyethylene tubes inserted into the femoral artery. The solutions prepared above were each subcutaneously administered at a dose of 1 mL/kg to the dorsal neck region of the rats, and blood was collected in the same manner as used for intravenous injection. These blood samples were centrifuged to collect plasma and stored at −40° C. until assayed for PTH(1-34) or PEG-PTH(1-34) levels.
The level of PTH(1-34) or PEG-PTH(1-34) was determined by RIA analysis using a Rat PTH IRMA Kit (Immutopics). A Cobra Quantum Model 5005 gamma counter (Packard) was used to measure radioactivity for each sample. The plasma level of PTH(1-34) or PEG-PTH(1-34) was calculated from a calibration curve prepared using PTH(1-34) or PEG-PTH(1-34). The Winnonlin program Ver. 2.1 (Scientific Consulting Inc.) was used to analyze the time course of changes in the calculated plasma PTH(1-34) or PEG-PTH(1-34) levels (FIG. 3: by intravenous route; FIG. 4: by subcutaneous route) to calculate the following as pharmacokinetic parameters: time required to reach the maximum plasma level (Tmax); maximum plasma level (Cmax); area under the curve of plasma levels (AUC); plasma half-life (t1/2); total body clearance (Cltotal); mean residence time in the body (MRT); and bioavailability (BA). […]

Data set [3] can be described thus: Hypercalcemic effect of PEG-PTH(1-34) in normal female DDY mice. Type of data set: in vivo. Particulars: sc, hPTH(1-34) 50-500 nmol/kg, 5 k PEG-PTH(1-34) 150 nmol/kg. As for the experimental part: 2 k and 5 k PEG-PTH(1-34) were also adjusted similarly to 30 nmol/mL (calculated as PTH) and allowed to stand on ice immediately before administration.
Male BDF1 mice at 5 weeks of age (Charles River Japan, Inc.) were measured for their body weight. Immediately before drug administration, blood was collected by orbital puncture into heparinized capillary tubes and measured for baseline levels of blood ionized calcium and pH using a Ca^2+/pH analyzer (Model 348/Bayer Medical Ltd.) to give the corrected level of ionized calcium at pH 7.4 for each sample. The mice received subcutaneous administration of each drug at a dose of 5 mL/kg. […] At 1, 3 and 6 hours after administration, blood was collected by orbital puncture to monitor the time course of corrected blood ionized calcium levels.
The same experiment was repeated on female DDY mice at 5 weeks of age (Charles River Japan, Inc.). The mice received subcutaneous administration of each drug at a dose of 5 mL/kg. […] At 1, 3 and 6 hours after administration, blood was collected by orbital puncture to monitor the time course of corrected blood ionized calcium levels.

The conditions of data set [4]: clinical, single subcutaneous 20-40 μg, at 4 to 6 hours after administration; cited from earlier work.

One may read the EC50 as the concentration needed to bring the measured effect to its halfway point. Low values mean an effect from little substance, high ones a need for much substance. Broadly, the Cmax is the highest concentration seen after dosing. Broadly, the AUC is the area under the concentration-time curve, a measure of exposure. One may read the MRT as the average time that molecules of a dose stay in the body. What is called Tmax is the time from dosing to the highest level.

Consider “2 k PEG-[Cys^35]-hPTH(1-35): [Cys^35]-PTH(1-35) conjugated with mPEG 2 k-MAL (2 kDa methoxy-PEG-maleimide) at the C-terminal cysteine (SVSEIQLMHNLGKHLNSMERVEWLRKKLQDVHNFC; Parathyroid hormone 2 kDa mPEG-maleimide at Cys35; UniProt P01270 32-66, looked up, variant V35C)”, for which, in the data set with rat PTH1 receptors, the “Maximum cAMP response” value was 52.2 ± 12.3 pmol/well. The EC50 in the data set with rat PTH1 receptors (cAMP production) was found to be 2.2 nM.
Regarding `CC[C@H](C)[C@H](NC(=O)[C@H](CCC(=O)O)NC(=O)[C@H](CO)NC(=O)[C@@H](NC(=O)[C@@H](N)CO)C(C)C)C(=O)N[C@@H](CCC(N)=O)C(=O)N[C@@H](CC(C)C)C(=O)N[C@@H](CCSC)C(=O)N[C@@H](Cc1cnc[nH]1)C(=O)N[C@@H](CC(N)=O)C(=O)N[C@@H](CC(C)C)C(=O)NCC(=O)N[C@@H](CCCCN)C(=O)N[C@@H](Cc1cnc[nH]1)C(=O)N[C@@H](CC(C)C)C(=O)N[C@@H](CC(N)=O)C(=O)N[C@@H](CO)C(=O)N[C@@H](CCSC)C(=O)N[C@@H](CCC(=O)O)C(=O)N[C@@H](CCCN=C(N)N)C(=O)N[C@H](C(=O)N[C@@H](CCC(=O)O)C(=O)N[C@@H](Cc1c[nH]c2ccccc12)C(=O)N[C@@H](CC(C)C)C(=O)N[C@@H](CCCN=C(N)N)C(=O)N[C@@H](CCCCN)C(=O)N[C@@H](CCCCN)C(=O)N[C@@H](CC(C)C)C(=O)N[C@@H](CCC(N)=O)C(=O)N[C@@H](CC(=O)O)C(=O)N[C@H](C(=O)N[C@@H](Cc1cnc[nH]1)C(=O)N[C@@H](CC(N)=O)C(=O)N[C@@H](Cc1ccccc1)C(=O)O)C(C)C)C(C)C` [hPTH(1-34), reference compound], the bioavailability in data set [1] (male, SD, rat, plasma, sc, 80 μg/kg, subcutaneous route, read-out: BA) was 13.6%. The compound also gave a Cmax in data set [1] (rat, in vivo, sc, subcutaneous, 80 μg/mL at 1 mL/kg) of 5.55 ng/mL. Further, the area under the curve (AUC) in data set [1] (rat, in vivo, sc, subcutaneous, 80 μg/mL at 1 mL/kg, read-out: AUC) stood at 2.94 ng·h/mL; in data set [2] (read-out: AUC) it was 21.7 ng·h/mL. In addition, the MRT came out at 32.8 min in data set [1] (rat, in vivo, sc, subcutaneous, 80 μg/mL at 1 mL/kg, read-out: MRT) and 12.7 min in data set [2] (read-out: MRT). Also, the time to peak (Tmax) in data set [1] (rat, in vivo, sc, subcutaneous, 80 μg/mL at 1 mL/kg, read-out: Tmax) stood at 11.6 min. For the same compound, the half-life in data set [1] (rat, in vivo, sc, subcutaneous, 80 μg/mL at 1 mL/kg, read-out: t ½ (converted)) is 20.9 min; in data set [2] (read-out: t½ (converted)) it was 13.9 min. In addition, the BA entry in data set [1] (subcutaneous route) was “about 13.6%”. For the same compound, the clearance in data set [2] (read-out: Cltotal (converted)) was 61.7 mL/min/kg. The “time of maximum increase in blood ionized calcium levels after administration” value in data set [3] was 3 h. Besides, the “blood calcium levels (in words)” value in data set [4] is given as “transient elevation of blood calcium levels”.
